Consider one compound from patent publication USRE47437E1, “Prolyl hydroxylase inhibitors and methods of use” (Akebia Therapeutics, Inc., priority 2015, dated 2019).

One assay deals with EPO. Nature of the assay: Mouse serum EPO assay (mouse ischemic hindlimb study). The class given is in vivo. To be noted: versus vehicle; after oral dosing; FIG. 2. Here is the method:
(§1) Mouse Ischemic Hindlimb Study
(§2) All animal work is conducted in accordance with the Guide for the Care and Use of Laboratory Animals (National Academy of Sciences; Copyright© 1996) and the Institutional Animal Care and Use Committee guidelines at Procter and Gamble Pharmaceuticals. We studied 9-10 week old male C57Bl/6 mice from Charles River Laboratory (Portage, Mich.). The mice are orally dosed with vehicle (aqueous carbonate buffer, 50 mM; pH 9.0) or compound 1 in vehicle at 50 mg/kg or 100 mg/kg. The animals are dosed three times: day 1 at 8 am and 5 pm, day 2 at 8 am. One hour after the first dose, unilateral arterial ligation is performed under anesthesia using isoflurane. The femoral artery is ligated proximal to the origin of the popliteal artery. The contralateral limb underwent a sham surgical procedure. Ligation is performed in an alternating fashion between right and left hindlimbs. Two hours after 8 am dosing on day 2, we obtained blood by ventricular stick while the mice are anesthetized with isoflurane. Serum samples for EPO analysis are obtained using gel clot serum separation tubes. Heart, liver, and gastrocnemius muscles are harvested, snap-frozen in liquid nitrogen, and stored in −80° C. until use.
The mouse serum EPO is detected using Mouse Quantikine Erythropoietin ELISA kit from R&D Systems according to manufacturer's instructions.

Another assay has as its system HIF-1α. As to the kind of experiment: Mouse tissue HIF Western blot analysis. The class given is in vivo. The settings on record: mouse liver; FIG. 1. As to the method:
as §1, §2
Mouse Tissue HIF Western Blot Analysis
Tissues from mice stored at −80° C. are powdered with mortar and pestle chilled with liquid nitrogen. […]
Background: In western blotting, separated proteins are transferred to a membrane and probed.

For `O=C(O)CNC(=O)c1ncc(-c2cccc(Cl)c2)cc1O` [{[5-(3-Chlorophenyl)-3-hydroxypyridine-2-carbonyl]amino}-acetic acid], the “erythropoietin level in mouse serum” value in the assay with EPO is “elevated versus vehicle”. Also, the “stabilization of HIF-1α, immunoblot analysis of nuclear extracts” value in the assay with HIF-1α is “stabilization of HIF-1α in mouse liver”.
